Laboratory results: paper PMC7047876, “Potent Chimeric Antimicrobial Derivatives of the Medicago truncatula NCR247 Symbiotic Peptide” (Frontiers in Microbiology, 2020)
Converted amounts (≈) assume the structure as drawn. Peptide text beside a SMILES is read from it.

Key:
Assay type in all cases: cell-based
[1] = tested on: Klebsiella pneumoniae (NCTC 13440); assay: microbe, parasite or virus in culture; settings: for MBC: NCTC 13440, 3 h, pH 7.4, read-out: Minimal bactericidal concentration (MBC) K. p.
Excerpt: (§1) The pathogenic bacterial strains obtained from the ATCC (United States) and NCTC (National Collection of Type Cultures – England) were the Gram-positive: Enterococcus faecalis (ATCC 29212), Staphylococcus aureus (HNCMO112011), Listeria monocytogenes (ATCC 19111) and the Gram-negative: Pseudomonas aeruginosa (ATCC 27853), Escherichia coli (ATCC 8739), Salmonella enterica (ATCC 13076), Klebsiella pneumoniae (NCTC 13440), Acinetobacter baumannii (ATCC 17978).
(§2) Overnight bacterial cultures grown in LB were diluted and grown to OD600 = 0.2–0.6 at 37°C with shaking. After harvesting and washing bacteria in PPB, the suspensions were adjusted to OD600 = 0.1 corresponding to ∼10^7 bacteria/mL. Antimicrobial activity of the peptides and the antibiotics was determined in PPB in 96 well microplates using 10 μL bacterial suspension and 90 μL of the 2-fold serial dilutions of peptides or antibiotics. Peptides were tested from 25 μM to 0.125 μM whereas the antibiotics; carbenicillin (Cb) from Duchefa Biochemie (Prod.No. C0109.0025) and levofloxacin (Lvx) from Sigma-Aldrich (Prod.No. 28266-10MG-F) from […] to 0.1 μM. The microplates were incubated for 3 h at 37°C with 250 rpm shaking and then 5 μl from each sample was placed on LB agar and the growth of bacteria was monitored after overnight incubation at 37°C. The lowest concentration of the antimicrobial agents, which completely eliminated viable bacteria was the minimal bactericidal concentration (MBC).

[2] = tested on: Escherichia coli (ATCC 8739); assay: microbe, parasite or virus in culture; settings: ATCC 8739, 3 h, pH 7.4; read-out: Minimal bactericidal concentration (MBC) E. c.
Excerpt: as §1, §2

[3] = tested on: Listeria monocytogenes (ATCC 19111); assay: microbe, parasite or virus in culture; settings: for MBC: ATCC 19111, 3 h, pH 7.4, read-out: Minimal bactericidal concentration (MBC) L. m.
Excerpt: as §1, §2

[4] = tested on: Salmonella enterica (ATCC 13076); assay: microbe, parasite or virus in culture; settings: ATCC 13076, 3 h, pH 7.4; read-out: Minimal bactericidal concentration (MBC) S. e.
Excerpt: as §1, §2

[5] = tested on: Pseudomonas aeruginosa (ATCC 27853); assay: microbe, parasite or virus in culture; settings: ATCC 27853, 3 h, pH 7.4; read-out: Minimal bactericidal concentration (MBC) P. a.
Excerpt: as §1, §2

[6] = tested on: Enterococcus faecalis (ATCC 29212); assay: microbe, parasite or virus in culture; settings: ATCC 29212, 3 h, pH 7.4; read-out: Minimal bactericidal concentration (MBC) E. f.
Excerpt: as §1, §2

[7] = tested on: Staphylococcus aureus (HNCMO112011); assay: microbe, parasite or virus in culture; settings: HNCMO112011, 3 h, pH 7.4; read-out: Minimal bactericidal concentration (MBC) S. a.
Excerpt: as §1, §2

[8] = tested on: Acinetobacter baumannii (ATCC 17978); assay: microbe, parasite or virus in culture; settings: ATCC 17978, 3 h, pH 7.4; read-out: Minimal bactericidal concentration (MBC) A. b.
Excerpt: as §1, §2

Acinetobacter baumannii = settings: for MBC in Mueller Hinton Broth, panel (A), A. b.: 3 h; for MBC in Mueller Hinton Broth, panel (B), A. b. / MIC in Mueller Hinton Broth, panel (C), A. b.: 20 h
Excerpt: as §1
(§3) Ca^2+ and Mg^2+ can inhibit the antimicrobial activity of cationic peptides, therefore the MBC and MIC values were also determined in MHB, which unlike PPB contains divalent cations and allows growth of bacteria. Bacteria were grown and prepared similarly except that bacteria were resuspended in MHB. 10 μl of bacteria OD600 = 0.1, supplemented with 45 μl MHB and 45 μl of 2-fold dilution series of peptides, were cultivated for 3 and 20 h at 37°C with shaking. Optical density of each sample was measured (Hidex Sense Microplate Reader with Plate Reader Software version 5064) and 5 μl was placed on LB agar plates after 3 and 20 h treatment. The minimal inhibitory concentration (MIC) corresponded to the lowest concentration, which inhibited growth.

Escherichia coli = settings: for MBC in Mueller Hinton Broth, panel (A), E. c.: 3 h; for MBC in Mueller Hinton Broth, panel (B), E. c. / MIC in Mueller Hinton Broth, panel (C), E. c.: 20 h
Excerpt: as §1, §3

Staphylococcus aureus = settings: for MBC in Mueller Hinton Broth, panel (A), S. a.: 3 h; for MBC in Mueller Hinton Broth, panel (B), S. a. / MIC in Mueller Hinton Broth, panel (C), S. a.: 20 h
Excerpt: as §1, §3

[9] = 3 h treatment in PPB (20 mM potassium-phosphate buffer, pH 7.4), 37°C, then plating on LB agar

SMILES: CC[C@H](C)[C@H](NC(=O)[C@H](CS)NC(=O)CNC(=O)[C@H](CC(N)=O)NC(=O)[C@@H](N)CCCNC(=N)N)C(=O)N[C@H](C(=O)N[C@@H](CC(=O)O)C(=O)N1CCC[C@H]1C(=O)N[C@@H](CCCNC(=N)N)C(=O)N[C@@H](CS)C(=O)N1CCC[C@H]1C(=O)N[C@@H](Cc1ccc(O)cc1)C(=O)N[C@@H](CCC(N)=O)C(=O)N[C@@H](CCC(N)=O)C(=O)N[C@@H](CS)C(=O)N[C@@H](CCCNC(=N)N)C(=O)N[C@@H](CCCNC(=N)N)C(=O)N1CCC[C@H]1C(=O)N[C@@H](CC(C)C)C(=O)N[C@@H](Cc1ccc(O)cc1)C(=O)N[C@@H](CS)C(=O)N[C@@H](CCCNC(=N)N)C(=O)N[C@@H](CCCNC(=N)N)C(=O)N[C@@H](CCCNC(=N)N)C(N)=O)C(C)C [A, NCR247] (H-RNGCIVDPRCPYQQCRRPLYCRRR-NH2; N-terminus assumed)
- Minimal bactericidal concentration (MBC) K. p. [1, 9]: resistant at 25 μM
- MBC [2]: 6.3 µM (≈ 19 µg/mL)
- Minimal bactericidal concentration (MBC) L. m. [3, 9]: resistant at 25 μM
- MBC [3]: >25 µM
- MBC [4]: 25 µM (≈ 75.2 µg/mL)
- MBC [5]: 3.1 µM (≈ 9.33 µg/mL)
- MBC [6]: >25 µM
- MBC [7]: 6.3 µM (≈ 19 µg/mL)
- MBC [8]: 12.5 µM (≈ 37.6 µg/mL)
- MBC in Mueller Hinton Broth, panel (A), A. b. (Acinetobacter baumannii): > 25 µM
- MBC in Mueller Hinton Broth, panel (B), A. b. (Acinetobacter baumannii): >25 µM
- MIC in Mueller Hinton Broth, panel (C), A. b. (Acinetobacter baumannii): >25 µM
- MBC in Mueller Hinton Broth, panel (A), E. c. (Escherichia coli): > 25 µM
- MBC in Mueller Hinton Broth, panel (B), E. c. (Escherichia coli): >25 µM
- MIC in Mueller Hinton Broth, panel (C), E. c. (Escherichia coli): 25 µM (≈ 75.2 µg/mL)
- MBC in Mueller Hinton Broth, panel (A), S. a. (Staphylococcus aureus): > 25 µM
- MBC in Mueller Hinton Broth, panel (B), S. a. (Staphylococcus aureus): >25 µM
- MIC in Mueller Hinton Broth, panel (C), S. a. (Staphylococcus aureus): >25 µM

SMILES: CC(C)C[C@H](NC(=O)[C@@H]1CCCN1C(=O)[C@H](CCCNC(=N)N)NC(=O)[C@H](CCCNC(=N)N)NC(=O)[C@H](CS)NC(=O)[C@H](CCC(N)=O)NC(=O)[C@@H](N)CCC(N)=O)C(=O)N[C@@H](Cc1ccc(O)cc1)C(=O)N[C@@H](CS)C(=O)N[C@@H](CCCNC(=N)N)C(=O)N[C@@H](CCCNC(=N)N)C(=O)N[C@@H](CCCNC(=N)N)C(N)=O [B, NCR247C] (H-QQCRRPLYCRRR-NH2; N-terminus assumed)
- MBC [1]: >25 µM
- MBC [2]: 6.3 µM (≈ 10.3 µg/mL)
- MBC [3]: >25 µM
- MBC [4]: >25 µM
- MBC [5]: 25 µM (≈ 40.8 µg/mL)
- MBC [6]: >25 µM
- MBC [7]: >25 µM
- MBC [8]: 25 µM (≈ 40.8 µg/mL)
- MBC in Mueller Hinton Broth, panel (A), A. b. (Acinetobacter baumannii): > 25 µM
- MBC in Mueller Hinton Broth, panel (B), A. b. (Acinetobacter baumannii): >25 µM
- MIC in Mueller Hinton Broth, panel (C), A. b. (Acinetobacter baumannii): >25 µM
- MBC in Mueller Hinton Broth, panel (A), E. c. (Escherichia coli): > 25 µM
- MBC in Mueller Hinton Broth, panel (B), E. c. (Escherichia coli): >25 µM
- MIC in Mueller Hinton Broth, panel (C), E. c. (Escherichia coli): >25 µM
- MBC in Mueller Hinton Broth, panel (A), S. a. (Staphylococcus aureus): > 25 µM
- MBC in Mueller Hinton Broth, panel (B), S. a. (Staphylococcus aureus): >25 µM
- MIC in Mueller Hinton Broth, panel (C), S. a. (Staphylococcus aureus): >25 µM

SMILES: CC(C)C[C@H](NC(=O)[C@@H]1CCCN1C(=O)[C@H](CCCNC(=N)N)NC(=O)[C@H](CCCNC(=N)N)NC(=O)[C@H](CS)NC(=O)[C@H](CCC(N)=O)NC(=O)[C@@H](N)CCC(N)=O)C(=O)N[C@@H](Cc1ccc(O)cc1)C(=O)N[C@@H](CS)C(=O)N[C@@H](CCCNC(=N)N)C(=O)N[C@@H](CCCNC(=N)N)C(=O)N[C@@H](CCCNC(=N)N)C(=O)N[C@@H](Cc1c[nH]c2ccccc12)C(=O)N[C@@H](CO)C(=O)N[C@@H](Cc1c[nH]cn1)C(=O)N1CCC[C@H]1C(=O)N[C@@H](CCC(N)=O)C(=O)N[C@@H](Cc1ccccc1)C(=O)N[C@@H](CCC(=O)O)C(=O)N[C@@H](CCCCN)C(N)=O [C, NCR247C-StrepII] (H-QQCRRPLYCRRRWSHPQFEK-NH2; N-terminus assumed)
- MBC [1]: >25 µM
- MBC [2]: 6.3 µM (≈ 16.8 µg/mL)
- MBC [3]: >25 µM
- MBC [4]: >25 µM
- MBC [5]: 6.3 µM (≈ 16.8 µg/mL)
- MBC [6]: >25 µM
- MBC [7]: 6.3 µM (≈ 16.8 µg/mL)
- MBC [8]: 25 µM (≈ 66.9 µg/mL)
- MBC in Mueller Hinton Broth, panel (A), A. b. (Acinetobacter baumannii): > 25 µM
- MBC in Mueller Hinton Broth, panel (B), A. b. (Acinetobacter baumannii): >25 µM
- MIC in Mueller Hinton Broth, panel (C), A. b. (Acinetobacter baumannii): >25 µM
- MBC in Mueller Hinton Broth, panel (A), E. c. (Escherichia coli): > 25 µM
- MBC in Mueller Hinton Broth, panel (B), E. c. (Escherichia coli): >25 µM
- MIC in Mueller Hinton Broth, panel (C), E. c. (Escherichia coli): >25 µM
- MBC in Mueller Hinton Broth, panel (A), S. a. (Staphylococcus aureus): > 25 µM
- MBC in Mueller Hinton Broth, panel (B), S. a. (Staphylococcus aureus): >25 µM
- MIC in Mueller Hinton Broth, panel (C), S. a. (Staphylococcus aureus): >25 µM

SMILES: CSCC[C@H](NC(=O)[C@H](CCCCN)NC(=O)[C@H](Cc1ccccc1)NC(=O)[C@H](CC(N)=O)NC(=O)[C@H](CC(C)C)NC(=O)[C@@H]1CCCN1C(=O)[C@@H](N)CCCNC(=N)N)C(=O)N[C@@H](CC(C)C)C(=O)N[C@@H](CCCNC(=N)N)C(=O)N[C@@H](Cc1ccccc1)C(=O)N[C@@H](Cc1c[nH]c2ccccc12)C(=O)NCC(=O)N[C@@H](CCC(N)=O)C(=O)N[C@@H](CCC(N)=O)C(=O)N[C@@H](CCC(N)=O)C(=O)N[C@@H](CS)C(=O)N[C@@H](CCCNC(=N)N)C(=O)N[C@@H](CCCNC(=N)N)C(=O)N1CCC[C@H]1C(=O)N[C@@H](CC(C)C)C(=O)N[C@@H](Cc1ccc(O)cc1)C(=O)N[C@@H](CS)C(=O)N[C@@H](CCCNC(=N)N)C(=O)N[C@@H](CCCNC(=N)N)C(=O)N[C@@H](CCCNC(=N)N)C(=O)N[C@@H](Cc1c[nH]c2ccccc12)C(=O)N[C@@H](CO)C(=O)N[C@@H](Cc1c[nH]cn1)C(=O)N1CCC[C@H]1C(=O)N[C@@H](CCC(N)=O)C(=O)N[C@@H](Cc1ccccc1)C(=O)N[C@@H](CCC(=O)O)C(=O)N[C@@H](CCCCN)C(N)=O [E, X1-NCR247C-StrepII] (H-RPLNFKMLRFWGQQQCRRPLYCRRRWSHPQFEK-NH2; N-terminus assumed)
- MBC [1]: 6.3 µM (≈ 27.4 µg/mL)
- MBC [2]: 3.1 µM (≈ 13.5 µg/mL)
- MBC [3]: 3.1 µM (≈ 13.5 µg/mL)
- MBC [4]: 3.1 µM (≈ 13.5 µg/mL)
- MBC [5]: 3.1 µM (≈ 13.5 µg/mL)
- MBC [6]: 12.5 µM (≈ 54.4 µg/mL)
- MBC [7]: 3.1 µM (≈ 13.5 µg/mL)
- MBC [8]: 3.1 µM (≈ 13.5 µg/mL)
- MBC in Mueller Hinton Broth, panel (A), A. b. (Acinetobacter baumannii): 12.5 µM (≈ 54.4 µg/mL)
- MBC in Mueller Hinton Broth, panel (B), A. b. (Acinetobacter baumannii): 6.3 µM (≈ 27.4 µg/mL)
- MIC in Mueller Hinton Broth, panel (C), A. b. (Acinetobacter baumannii): 6.3 µM (≈ 27.4 µg/mL)
- MBC in Mueller Hinton Broth, panel (A), E. c. (Escherichia coli): 25 µM (≈ 109 µg/mL)
- MBC in Mueller Hinton Broth, panel (B), E. c. (Escherichia coli): 6.3 µM (≈ 27.4 µg/mL)
- MIC in Mueller Hinton Broth, panel (C), E. c. (Escherichia coli): 6.3 µM (≈ 27.4 µg/mL)
- MBC in Mueller Hinton Broth, panel (A), S. a. (Staphylococcus aureus): 25 µM (≈ 109 µg/mL)
- MBC in Mueller Hinton Broth, panel (B), S. a. (Staphylococcus aureus): 6.3 µM (≈ 27.4 µg/mL)
- MIC in Mueller Hinton Broth, panel (C), S. a. (Staphylococcus aureus): 6.3 µM (≈ 27.4 µg/mL)
